Measured values reported in patent US20200383985A1, “Inhibitors of Protease Activated Receptor-2” (Endosome Therapeutics, Inc., priority 2017, published 2020).

Assays:
mice = assay: Visceromotor response (VMR) to colorectal distension (CRD); type: in vivo, mouse; conditions: 30 mg/kg, 100 μL enema into the colon, 30 min before the protease mixture
Protocol: Noxious colorectal distension (CRD) triggers the visceromotor response (VMR), a nociceptive brainstem reflex consisting of contraction of abdominal muscles, which can be monitored by electromyography. This approach allows assessment of visceral sensitivity in awake mice (Castro, J. et al., Br. J. Pharmacol. 2017, 175(12): 2384-2398). To examine protease-induced hy-persensitivity, a protease mixture (10 nM trypsin+100 nM NE+100 nM CS) or vehicle (saline) (100 μL) was instilled into the colon (enema) of healthy mice. After 15 min, the VMR was measured in response to graded CRD (20-80 mm Hg) with a barostat balloon. In vehicle-treated mice, CRD induced a graded VMR (FIG. 9I). […] Because alterations in the compliance of the colon can alter VMR to CRD, the pressure/volume relationship was measured at all distending pressures. Compliance of the colon was unaffected by the protease mixture or I-343 (FIGS. 21E and F). […]
Electromyography (EMG) of abdominal muscles was used to monitor VMR to CRD (Eichel, K. et al., Nat. Cell Biol. 2016, 18(3): 303-310). […] The EMG signal was recorded (NL100AK headstage), amplified (NL104), filtered (NL 125/126, Neurolog, Digitimer Ltd, bandpass 50-5000 Hz), and digitized (CED 1401, Cambridge Electronic Design) for off-line analysis using Spike2 (Cambridge Electronic Design). […]

DRG neurons = assay: Ca2+ assays in DRG neurons; type: cell-based, mouse; conditions: trypsin 100 nM
From the text: Proteases may induce pain by activating PAR2 on nociceptors or other cell types. To determine the contribution of PAR2 on nociceptors, mice were bred expressing PAR2 flanked by LoxP sites (Par2^lox/lox) with mice expressing Cre recombinase targeted to nociceptors using the NaV1.8 promoter (Scn10a) (Stirling L. C. et al., Pain 2005, 113(1-2): 27-36). Par2-NaV1.8 mice lacked immunoreactive PAR2 in NaV1.8-positive nociceptors (FIG. 1A). Whereas 31% (20 of 65) of small-diameter (<25 μm) DRG neurons from WT mice responded to trypsin (100 nM) with increased [Ca^2+]i, only 6% (3 of 51) of neurons from Par2-NaV1.8 mice responded (FIGS. 1B, 11A, and 11B). Nociception was assessed by measuring withdrawal responses to stimulation of the plantar surface of the hindpaw with von Frey filaments. […] In Par2-NaV1.8 mice, the initial responses were maintained, but responses after 120 min were diminished. […] Trypsin-induced inflammation was markedly diminished in Par2-NaV1.8 mice.
[Ca^2+]i was measured in DRG neurons from WT and Par2-NaV1.8 mice, as described (Tsvetanova, N. G., et al., Nat. Chem. Biol. 2014, 10(12): 1061-1065). […] Fluorescence of individual neurons was measured at 340 nm and 380 nm excitation and 530 nm using a Nikon Eclipse Ti microscope with 20× magnification and a Photometrics CoolSNAP camera. Data were analyzed using Nikon Ti Element Software. […]

| Molecule | protease mixture-amplified VMR to CRD (mice) | small-diameter DRG neurons responding with increased [Ca2+]i, Par2-NaV1.8 mice (DRG neurons; 3 of 51 neurons) [%] | small-diameter DRG neurons responding with increased [Ca2+]i, WT mice (DRG neurons; 20 of 65 neurons) [%] |
| --- | --- | --- | --- |
| Cc1nc(C(=O)N2CCN(C(=O)c3cn4nc(-c5ccc(F)cc5)cc(C(C)(C)C)c4n3)C(C)(C)C2)n[nH]1 [Compound I-343, (8-(tert-butyl)-6-(4-fluorophenyl)imidazo[1,2-b]pyridazin-2-yl)(2,2-dimethyl-4-(5-methyl-1H-1,2,4-triazole-3-carbonyl)piperazin-1-yl)methanone] | abolished the response | – | – |
| trypsin | – | 6 | 31 |
